Drawing on the RepoRT retention time repository (doi:10.1016/j.chroma.2019.01.023), this text covers LC retention time for 77 compounds.

The data set is described as follows: HILIC, Merck SeQuant ZIC-pHILIC, 150 × 2.1 mm, 5 µm, 40 °C, 0.3 mL/min, estimated dead time 1.1 min; A: acetonitrile; B: water + 2.8 mM ammonium formate, pH 9; gradient (min/%B) 0/5 1/5 10/51 13/51 13.1/5 20/5. The following applies: stereoisomer not certain.
For `C=CC(=O)[O-]` [2-PROPENOATE], the LC retention time was 2.13 min. `CC(O)(CC(=O)O)CC(=O)SCCNC(=O)CCNC(=O)C(O)C(C)(C)COP(=O)(O)OP(=O)(O)OCC1OC(n2cnc3c(N)ncnc32)C(O)C1OP(=O)(O)O` (configuration not stated) [3-HYDROXY-3-METHYLGLUTARYL-COA]: the LC retention time was 9.96 min. Under `CC(C)=CC(=O)SCCNC(=O)CCNC(=O)C(O)C(C)(C)COP(=O)(O)OP(=O)(O)OCC1OC(n2cnc3c(N)ncnc32)C(O)C1OP(=O)(O)O` (configuration not stated) [3-METHYLCROTONYL-COA] stands 7.95 min; under `O=C(O)C(O)COP(=O)(O)O` (configuration not stated) [3-PHOSPHOGLYCERATE], 10.1 min; under `NC(CS(=O)O)C(=O)O` (configuration not stated) [3-SULFINOALANINE], 8.64 min.

For the compound `N[C@H](C(=O)O)c1ccc(O)cc1` [4-HYDROXY-L-PHENYLGLYCINE], the LC retention time is 9.02 min. Take `NCC(=O)CCC(=O)O` [5-AMINOLEVULINATE]: the LC retention time is 9.28 min.

In the case of `O=C(O)C(O)C(O)C(O)C(O)COP(=O)(O)O` (configuration not stated) [6-PHOSPHOGLUCONATE], the LC retention time is 10.3 min. `NCCP(=O)(O)O` [(2-AMINOETHYL)PHOSPHONATE]: the LC retention time was 9.6 min.

Consider `Nc1ncnc2c1ncn2C1OC(COP(=O)(O)OP(=O)(O)O)C(O)C1O` (configuration not stated) [ADENOSINE 5'-DIPHOSPHATE], for which the LC retention time was 9.46 min. Consider `Nc1ncnc2c1ncn2C1OC(COP(=O)(O)OP(=O)(O)OCC2OC(O)C(O)C2O)C(O)C1O` (configuration not stated) [ADENOSINE DIPHOSPHATE RIBOSE], for which the LC retention time was 9.14 min. Next, `Nc1ncnc2c1ncn2C1OC(COP(=O)(O)OP(=O)(O)OC2OC(CO)C(O)C(O)C2O)C(O)C1O` (configuration not stated) [ADP-GLUCOSE]: 9.12 min; `O=C1OC(C(O)CO)C(O)=C1O` (configuration not stated) [ASCORBATE]: 8.49 min. Take `O=C(O)c1ccccc1` [BENZOATE]: the LC retention time was 1.41 min. Next, `O=P(O)(O)OC(CO)CO` [BETA-GLYCEROPHOSPHATE]: 8.57 min; `NCCOP(=O)(O)OP(=O)(O)OCC1OC(n2ccc(N)nc2=O)C(O)C1O` (configuration not stated) [CDP-ETHANOLAMINE]: 9.33 min. Take `CC(C)(COP(=O)(O)OP(=O)(O)OCC1OC(n2cnc3c(N)ncnc32)C(O)C1OP(=O)(O)O)C(O)C(=O)NCCC(=O)NCCS` (configuration not stated) [COENZYME A]: the LC retention time is 9.12 min. As for `NC(CS)C(=O)NCC(=O)O` (configuration not stated) [CYS-GLY], the LC retention time is 8.8 min. Consider `NC(CCSCC(N)C(=O)O)C(=O)O` (configuration not stated) [CYSTATHIONINE], for which the LC retention time was 10.3 min. For `NC(CS)C(=O)O` (configuration not stated) [CYSTEINE], the LC retention time was 10.2 min. For `NC(CSSCC(N)C(=O)O)C(=O)O` (configuration not stated) [CYSTINE], the LC retention time was 10.3 min. As to `Nc1ccn(C2OC(CO)C3OP(=O)(O)OC32)c(=O)n1` (configuration not stated) [CYTIDINE 2',3'-CYCLIC PHOSPHATE], the LC retention time was 8.06 min. As for `Nc1ccn(C2OC(COP(=O)(O)OP(=O)(O)O)C(O)C2O)c(=O)n1` (configuration not stated) [CYTIDINE DIPHOSPHATE], the LC retention time was 10.2 min. As to `Nc1ccn(C2OC(COP(=O)(O)OP(=O)(O)OP(=O)(O)O)C(O)C2O)c(=O)n1` (configuration not stated) [CYTIDINE TRIPHOSPHATE], the LC retention time was 11.1 min.

Regarding `C[C@@H](N)C(=O)O` [D-ALANINE], the LC retention time was 5.74 min.

`O=P(O)(O)OCC1OC(O)C(O)C1O` [D-RIBOSE 5-PHOSPHATE]: the LC retention time is 9.19 min.

For the compound `Nc1ncnc2c1ncn2C1CC(O)C(COP(=O)(O)OP(=O)(O)OP(=O)(O)O)O1` (configuration not stated) [DEOXYADENOSINE TRIPHOSPHATE], the LC retention time was 10.2 min. As for `Nc1ccn(C2CC(O)C(COP(=O)([O-])OP(=O)([O-])[O-])O2)c(=O)n1` (configuration not stated) [DEOXYCYTIDINE-DIPHOSPHATE], the LC retention time was 9.8 min. In the case of `O=c1ccn(C2CC(O)C(COP(=O)(O)OP(=O)(O)OP(=O)(O)O)O2)c(=O)[nH]1` (configuration not stated) [DEOXYURIDINE TRIPHOSPHATE], the LC retention time is 10.5 min. Under `Nc1nc2c(ncn2C2CC(O)C(COP(=O)(O)OP(=O)(O)O)O2)c(=O)[nH]1` (configuration not stated) [DGDP] stands 10.2 min; under `Nc1nc2c(ncn2C2CC(O)C(COP(=O)(O)OP(=O)(O)OP(=O)(O)O)O2)c(=O)[nH]1` (configuration not stated) [DGTP], 11.1 min. Regarding `NC(CCCC(N)C(=O)O)C(=O)O` (configuration not stated) [DIAMINOPIMELATE], the LC retention time was 10.5 min. Next, `Nc1nc2c(c(=O)[nH]1)N=C(CNc1ccc(C(=O)NC(CCC(=O)O)C(=O)O)cc1)CN2` (configuration not stated) [DIHYDROFOLATE]: 8.81 min. Under `CNCC(O)c1ccc(O)c(O)c1` (configuration not stated) [EPINEPHRINE] stands 2.03 min. Turning to `NCCOP(=O)(O)O` [ETHANOLAMINE PHOSPHATE], the LC retention time was 9.23 min. Consider `O=C(CO)C(O)C(O)C(O)COP(=O)(O)O` (configuration not stated) [FRUCTOSE 6-PHOSPHATE], for which the LC retention time was 9.3 min. Consider `O=P(O)(O)OCC1OC(O)(COP(=O)(O)O)C(O)C1O` (configuration not stated) [FRUCTOSE BISPHOSPHATE], for which the LC retention time was 10.9 min. Consider `CC(C)=CCCC(C)=CCOP(=O)(O)OP(=O)(O)O` [GERANYL-PP], for which the LC retention time was 8.32 min. Regarding `O=C(O)C(O)C(O)C(O)C(O)CO` (configuration not stated) [GLUCONATE], the LC retention time was 8.5 min. Turning to `NC(C(=O)O)C(O)C(O)C(O)CO` (configuration not stated) [GLUCOSAMINATE], the LC retention time is 9.91 min. For the compound `NC1C(O)OC(COP(=O)(O)O)C(O)C1O` (configuration not stated) [GLUCOSAMINE 6-PHOSPHATE], the LC retention time was 10.2 min. Next, `NC(CCC(=O)O)C(=O)O` (configuration not stated) [GLUTAMATE]: 8.69 min.

Take `O=CC(O)COP(=O)(O)O` (configuration not stated) [GLYCERALDEHYDE 3-PHOSPHATE]: the LC retention time was 6.24 min. As to `O=C(O)C(O)CO` (configuration not stated) [GLYCERATE], the LC retention time was 7.98 min. For the compound `O=P(O)(O)OCC(O)CO` (configuration not stated) [GLYCEROL 3-PHOSPHATE], the LC retention time was 8.79 min. In the case of `Nc1nc2c(ncn2C2OC(COP(=O)(O)OP(=O)(O)OC3OC(CO)C(O)C(O)C3O)C(O)C2O)c(=O)[nH]1` (configuration not stated) [GUANOSINE DIPHOSPHATE MANNOSE], the LC retention time is 10.2 min. Next, `Nc1nc2c(ncn2C2OC(COP(=O)(O)OP(=O)(O)O)C(O)C2O)c(=O)[nH]1` (configuration not stated) [GUANOSINE DIPHOSPHATE]: 10.5 min. `Nc1nc2c(ncn2C2OC(COP(=O)(O)OP(=O)(O)OP(=O)(O)O)C(O)C2O)c(=O)[nH]1` (configuration not stated) [GUANOSINE TRIPHOSPHATE]: the LC retention time was 11.5 min. Next, `NC(CCS)C(=O)O` (configuration not stated) [HOMOCYSTEINE]: 9.91 min; `NC(CCSSCCC(N)C(=O)O)C(=O)O` (configuration not stated) [HOMOCYSTINE]: 9.92 min. Take `NCCS(=O)O` [HYPOTAURINE]: the LC retention time was 8.8 min. Consider `O=C(O)C(=O)Cc1c[nH]c2ccccc12` [INDOLE-3-PYRUVATE], for which the LC retention time was 5.17 min.

Take `O=c1[nH]cnc2c1ncn2C1OC(COP(=O)([O-])OP(=O)([O-])O)C(O)C1O` (configuration not stated) [INOSINE 5'-DIPHOSPHATE]: the LC retention time was 9.98 min. As for `O=c1[nH]cnc2c1ncn2C1OC(COP(=O)(O)OP(=O)(O)OP(=O)(O)O)C(O)C1O` (configuration not stated) [INOSINE TRIPHOSPHATE], the LC retention time was 11 min.

`O=C(O)CC(C(=O)O)C(O)C(=O)O` (configuration not stated) [ISOCITRATE]: the LC retention time was 10.5 min. On to `C=C(C)CCOP(=O)(O)OP(=O)(O)O` [ISOPENTENYL PYROPHOSPHATE], for which the LC retention time is 8.52 min.

For the compound `CC(O)C(=O)O` (configuration not stated) [LACTATE], the LC retention time was 1.54 min. As to `CS(=N)(=O)CCC(N)C(=O)O` (configuration not stated) [METHIONINE SULFOXIMINE], the LC retention time was 9.03 min. Next, `COC(=O)c1ccc(O)c(OC)c1` [METHYL VANILLATE]: 1.47 min; `CCOC(=O)CC(=O)[O-]` [MONOETHYLMALONATE]: 6.48 min. Take `CN(C)C(N)=NCCCC(N)C(=O)O` (configuration not stated) [N,N-DIMETHYL-ARGININE]: the LC retention time is 2.02 min. Take `CC(=O)NC1C(O)CC(O)(C(=O)O)OC1C(O)C(O)CO` (configuration not stated) [N-ACETYLNEURAMINATE]: the LC retention time was 8.33 min. Turning to `CC(=O)NC(CCCCN)C(=O)O` (stereo not drawn) [N-ALPHA-ACETYLLYSINE], the LC retention time was 8.76 min. Take `NC(=O)C1=CN(C2OC(COP(=O)(O)OP(=O)(O)OCC3OC(n4cnc5c(N)ncnc54)C(OP(=O)(O)O)C3O)C(O)C2O)C=CC1` (configuration not stated) [NADPH]: the LC retention time was 10.1 min.

With `CCCCCCCCC(=O)[O-]` [NONANOATE], the LC retention time is 5.16 min. Consider `O=C(O)CCCC(=O)C(=O)O` [OXOADIPATE], for which the LC retention time is 8.87 min. For the compound `O=C(O)CCC(=O)C(=O)O` [OXOGLUTARATE], the LC retention time was 9.21 min. Consider `OCC1OC(OCC2OC(O)(CO)C(O)C2O)C(O)C(O)C1O` (configuration not stated) [PALATINOSE], for which the LC retention time was 8.8 min. On to `O=C([O-])c1ccccn1` [PICOLINATE], for which the LC retention time was 6.41 min. Consider `O=C(O)C1(O)CC(O)C(O)C(O)C1` (configuration not stated) [QUINATE], for which the LC retention time is 8.1 min.

Turning to `OCC1OC(OCC2OC(OC3(CO)OC(CO)C(O)C3O)C(O)C(O)C2O)C(O)C(O)C1O` (configuration not stated) [RAFFINOSE], the LC retention time was 9.56 min. With `O=C(O)c1ccccc1O` [SALICYLATE], the LC retention time was 1.91 min. Take `OCC1OC(OCC2OC(OCC3OC(OC4(CO)OC(CO)C(O)C4O)C(O)C(O)C3O)C(O)C(O)C2O)C(O)C(O)C1O` (configuration not stated) [STACHYOSE]: the LC retention time was 10.1 min. Turning to `O=C(O)C=C(CC(=O)O)C(=O)O` [TRANS-ACONITATE], the LC retention time is 10.5 min.

In the case of `O=C(O)C1OC(OP(=O)(O)OP(=O)(O)OCC2OC(n3ccc(=O)[nH]c3=O)C(O)C2O)C(O)C(O)C1O` (configuration not stated) [URIDINE DIPHOSPHATE GLUCURONIC ACID], the LC retention time is 11 min. Take `O=c1ccn(C2OC(COP(=O)(O)O)C(O)C2O)c(=O)[nH]1` (configuration not stated) [URIDINE MONOPHOSPHATE]: the LC retention time was 8.67 min. Next, `OC1COC(O)C(O)C1O` (configuration not stated) [XYLOSE]: 8.34 min.
